In article PMC6934184, “Selective DNA-PKcs inhibition extends the therapeutic index of localized radiotherapy and chemotherapy” (The Journal of Clinical Investigation, 2019):

Target: T1, RET Y791F (Homo sapiens, UniProt P07949, Y791F)
T1 construct: purchased Thermo Fisher Scientific (Life Technologies) SelectScreen
Test: SelectScreen Z'LYTE
Type: biochemical
Description: The in vitro kinase selectivity of NU5455 was determined using the SelectScreen Broad Assay Panel (Thermo Fisher Scientific) involving activity and binding assays (Supplemental Table 1). […] Class IA PI3Ks were measured using the p85α subunit.
Kinase [ATP] % Assay Kinase [ATP] % Assay Kinase [ATP] % Assay Kinase [ATP] % Assay […]
RET Y791F Km app 9.2 Z PIK3CG (p110 gamma) Km app 2.9 A KIT D816H n/a -0.2 L TAOK2 (TAO1) Km app -5.1 Z […]
SGK (SGK1) Km app 8.5 Z MAP4K2 (GCK) Km app 2.7 Z TLK2 n/a -0.3 L STK38 (NDR) n/a -5.9 L
MERTK (cMER) Km app 8.3 Z CDK2/cyclin A Km app 2.7 Z TGFBR1 (ALK5) n/a -0.4 L MATK (HYL) Km app -6.3 Z
FYN Km app 8.3 Z EPHA1 Km app 2.7 Z CLK3 Km app -0.5 Z ABL1 E255K Km app -6.6 Z
TEC n/a 8.1 L CDK2/cyclin E1 n/a 2.7 L MAP3K14 (NIK) n/a -0.5 L STK17A (DRAK1) n/a -6.6 L
KIT V654A n/a 8.1 L TESK2 n/a 2.7 L AKT3 (PKB gamma) Km app -0.5 Z JAK2 JH1 JH2 Km app -6.7 Z
ROS1 Km app 8.0 Z SPHK1 Km app 2.7 A MAP3K9 (MLK1) Km app -0.5 Z PRKACB (PRKAC beta) n/a -6.8 L
FGFR3 K650E Km app 7.9 Z AMPK A2/B1/G1 Km app 2.6 Z IKBKB (IKK beta) Km app -0.6 Z PDGFRA (PDGFR alpha) Km app -6.8 Z
RAF1 (cRAF) Y340D Y341D 100 7.9 Z DYRK3 Km app 2.6 Z CAMK2A (CaMKII alpha) Km app -0.6 Z NEK9 Km app -7.2 Z
PI4KA (PI4K alpha) 10 7.8 A CSNK1D (CK1 delta) Km app 2.6 Z PRKCB1 (PKC beta I) Km app -0.7 Z PDK1 Km app -7.3 Z
HIPK2 Km app 7.8 Z ACVR2A n/a 2.5 L TTK n/a -0.7 L RPS6KB1 (p70S6K) Km app -7.8 Z […]

T1 sequence (P07949 29-1114 Y791F): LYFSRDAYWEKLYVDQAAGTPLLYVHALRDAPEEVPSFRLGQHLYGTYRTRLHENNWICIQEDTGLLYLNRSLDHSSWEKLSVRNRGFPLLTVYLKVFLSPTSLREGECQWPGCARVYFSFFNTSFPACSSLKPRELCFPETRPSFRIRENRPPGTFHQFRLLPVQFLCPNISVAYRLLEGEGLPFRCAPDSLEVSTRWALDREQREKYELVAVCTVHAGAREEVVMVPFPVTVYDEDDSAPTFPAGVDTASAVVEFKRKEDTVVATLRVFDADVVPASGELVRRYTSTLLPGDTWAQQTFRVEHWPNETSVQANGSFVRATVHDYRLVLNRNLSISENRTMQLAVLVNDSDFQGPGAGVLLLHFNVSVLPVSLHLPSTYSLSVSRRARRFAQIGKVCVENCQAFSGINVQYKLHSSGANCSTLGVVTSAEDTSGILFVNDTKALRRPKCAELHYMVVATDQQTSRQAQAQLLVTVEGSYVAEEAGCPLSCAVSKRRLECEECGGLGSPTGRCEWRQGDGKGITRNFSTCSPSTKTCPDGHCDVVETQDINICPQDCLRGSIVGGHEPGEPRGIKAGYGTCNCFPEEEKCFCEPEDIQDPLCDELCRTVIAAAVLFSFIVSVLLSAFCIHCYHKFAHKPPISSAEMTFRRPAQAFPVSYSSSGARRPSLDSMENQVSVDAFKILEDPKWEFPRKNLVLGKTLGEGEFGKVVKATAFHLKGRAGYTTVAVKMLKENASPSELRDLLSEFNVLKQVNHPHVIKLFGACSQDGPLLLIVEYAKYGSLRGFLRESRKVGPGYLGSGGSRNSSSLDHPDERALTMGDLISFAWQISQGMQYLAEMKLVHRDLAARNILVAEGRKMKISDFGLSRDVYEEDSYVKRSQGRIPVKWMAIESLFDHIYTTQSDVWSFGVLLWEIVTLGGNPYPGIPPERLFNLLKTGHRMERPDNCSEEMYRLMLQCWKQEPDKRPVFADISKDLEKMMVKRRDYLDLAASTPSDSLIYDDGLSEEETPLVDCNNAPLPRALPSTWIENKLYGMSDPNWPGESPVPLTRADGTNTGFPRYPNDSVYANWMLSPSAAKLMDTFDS

SMILES: CN(C(=O)CN1CCOCC1)c1ccc2sc3c(-c4cccc5c(=O)cc(N6CC7CCC(C6)O7)oc45)cccc3c2c1 [NU5455]
- inhibition at 1 µM: 9.2%
